Assay results taken from patent publication US20150132342A1, “NOVEL IMMUNE ACTIVATORS: SUBSTITUTE 4-AMINOQUINAZOLINES” (The Regents of the University of California, priority 2013, published 2015).

Tests used:
mBMDC = assay: Co-stimulatory molecule expression in CD11c+ mBMDC (flow cytometry); assay type: cell-based, mouse; conditions: CD11c+ population
Procedure: FIG. 2. Compound 1a induces type I IFN and expression of co-stimulatory molecules. A) Human PBMC were incubated with compound 1a (10 μM), LPS (10 ng/mL), or vehicle overnight. The release of type I IFN in the culture supernatants was measured by luciferase release in L929-ISRE reporter cells. Data shown are mean±SEM of triplicates. B) Compound 1a- or vehicle-treated wild type or Tlr4^−/−mBMDC were stained for CD11c and either CD40, CD80, or CD86. The expression levels of CD40, CD80, or CD86 were evaluated in the gated CD11c^+ population. DMSO 0.5% served as the vehicle control. C) Human PBMC were incubated with compound 1a (5 μM) overnight. CD80 and CD83 expression in gated CD11c^+ HLA-DR^+ population was analyzed by flow cytometer. Data are representative of two independent experiments showing similar results.
To evaluate whether treatment of DCs with this compound can induce maturation in these cells, mBMDC prepared from wild type or TLR4 deficient mice were exposed to compound 1a and then assayed for expression of co-stimulatory molecules CD40, CD80, and CD86 in the CD11c+ population (FIG. 2B). […] Induction of co-stimulatory molecules by compound 1a was also confirmed in human PBMC.

human TLR4/MD-2 = target: T1, human TLR4/MD-2 (Homo sapiens, UniProt O00206+Q9Y6Y9); assay: BMDM from transgenic mice expressing human TLR4/MD-2 (IL-6, IP-10); assay type: cell-based; conditions: BMDM from human TLR4/MD-2 transgenic mice deficient for murine TLR4/MD-2
T1 construct: expressed in transfected cells; host or cells: bone marrow derived macrophages of human TLR4 transgenic mice on a murine TLR4/MD-2 null C57BL/6 background (gift of Dr. L. Hajjar)
T1 sequence (O00206 24-839): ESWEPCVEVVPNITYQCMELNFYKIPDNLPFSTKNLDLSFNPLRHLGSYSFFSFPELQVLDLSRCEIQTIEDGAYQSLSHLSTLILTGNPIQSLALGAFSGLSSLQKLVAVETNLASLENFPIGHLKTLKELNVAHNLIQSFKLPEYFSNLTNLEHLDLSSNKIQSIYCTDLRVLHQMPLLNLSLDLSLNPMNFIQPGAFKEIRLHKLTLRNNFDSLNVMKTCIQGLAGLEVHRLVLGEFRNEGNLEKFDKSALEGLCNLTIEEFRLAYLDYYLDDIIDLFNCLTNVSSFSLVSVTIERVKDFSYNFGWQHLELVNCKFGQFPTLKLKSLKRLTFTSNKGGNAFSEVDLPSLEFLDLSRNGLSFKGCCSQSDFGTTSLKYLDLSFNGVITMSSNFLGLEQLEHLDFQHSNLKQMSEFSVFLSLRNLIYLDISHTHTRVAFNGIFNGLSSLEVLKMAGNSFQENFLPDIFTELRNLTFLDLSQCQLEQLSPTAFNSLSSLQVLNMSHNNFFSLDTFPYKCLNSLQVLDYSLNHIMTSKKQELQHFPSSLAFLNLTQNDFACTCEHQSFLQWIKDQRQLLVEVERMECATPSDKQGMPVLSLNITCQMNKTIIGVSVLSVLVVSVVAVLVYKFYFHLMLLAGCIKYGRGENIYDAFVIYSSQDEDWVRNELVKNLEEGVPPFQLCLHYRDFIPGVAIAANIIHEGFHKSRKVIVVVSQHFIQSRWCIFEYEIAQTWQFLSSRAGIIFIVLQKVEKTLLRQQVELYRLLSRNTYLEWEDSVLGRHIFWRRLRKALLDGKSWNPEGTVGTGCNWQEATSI
T1 sequence (Q9Y6Y9 19-160): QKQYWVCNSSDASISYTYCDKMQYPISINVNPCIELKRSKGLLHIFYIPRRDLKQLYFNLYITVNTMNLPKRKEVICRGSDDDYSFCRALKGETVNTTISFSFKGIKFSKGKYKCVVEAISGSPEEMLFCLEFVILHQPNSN
Description: Animals. Seven to 9 week-old C57BL/6 (wild type, WT) and Cd14^−/− (C57BL/6 background) mice were purchased from the Jackson Laboratories (Bar Harbor, Mass.). Tlr4^−/− mice (C57BL/6 background) were a gift from Dr. Shizuo Akira (Osaka University, Japan) and were backcrossed for 10 generations onto the C57BL/6 background at University of California, San Diego (UCSD). MD-2^−/− mice (C57BL/6 background) were originally generated by Dr. K. Miyake (University of Tokyo, Tokyo, Japan) and were kindly provided by Dr. L. Hajjar (University of Washington, Seattle, Wash.). Human TLR4 transgenic mice on murine TLR4/MD-2 null C57BL/6 background were kindly provided by Dr. L. Hajjar.^3 All animal experiments were approved by the UCSD Institutional Animal Care and Use Committee.
In vitro cytokine induction in bone marrow derived dendritic cells (BMDC) and macrophages (BMDM). […] The levels of IL-6 or IP-10 in the culture supernatants were determined by ELISA (BD Biosciences, La Jolla, Calif.).^5 Finally, all levels of cytokine release were normalized to those of LPSstimulation within each experiment, set at 100.

human PBMC = assay: Type I IFN release by hPBMC measured in L929-ISRE luciferase reporter cells; assay type: cell-based; conditions: 10 μM, overnight; LPS 10 ng/mL comparator
Procedure: Type I interferon (IFN) assay. L929 cells stably expressing an IFN sensitive response element (ISRE) luciferase reporter construct were kindly provided by Dr. B. Beutler (UT Southwestern, Dallas, Tex.)^7. The bioactivity oftype I IFN in hPBMC supernatants was measured by luciferase assay using L929-ISRE cells as described previously.^7 L929-ISRE cells were plated at 5×10^4 cells per well inDulbecco's Modified Eagle Medium (Life Technologies) supplemented with 10% FCS, 100 U/mL penicillin and 100 μg/mL streptomycinin a 96-well white-walled clear-bottom plate and incubated overnight. Thus, 50 μL of supernatant was incubated with L929-ISRE cells in 50 μL of DMEM for 6 h. The luciferase activities were measured by GloBrightLuciferase Assay Buffer (Promega, Madison, Wis.).

THP-1 cells = assay: CellSensor NF-κB-bla THP-1 FRET β-lactamase reporter assay; assay type: cell-based, human; conditions: graded concentrations, normalized to LPS
Procedure: The assay with CellSensor® NF-κB-bla THP-1 cells was performed almost identically to that with CellSensor® NF-κB-bla RAW 264.7 cells, except that cells were harvested, resuspended, and plated in RPMI (plus 10% dialyzed FBS, 0.1 mM non-essential amino acids, 1 mM sodium pyruvate, 100 U/ml penicillin and 100 μg/ml streptomycin) and incubated with drugs for only 5 h prior to addition of the 6× substrate mixture. Plates were then incubated for 2 h prior to measurement of fluorescence.

Activation of transgenic human TLR4/MD-2 complex relative to mouse TLR4/MD-2 (human TLR4/MD-2): to a greater extent
SMILES: CCOC(=O)c1nc(Nc2cc(Oc3ccccc3)cc([N+](=O)[O-])c2)c2ccccc2n1 [Compound 1a, Ethyl 4-((3-nitro-5-phenoxyphenyl)amino)quinazoline-2-carboxylate]
Expression of co-stimulatory molecules CD40, CD80, CD86 (mBMDC; TLR4 deficient mBMDC): not in the TLR4 deficient cells
Expression of co-stimulatory molecules CD40, CD80, CD86 (mBMDC; wild type mBMDC): increased
Release of type I IFN (human PBMC): comparable to that of LPS
NF-κB activation potency, human THP-1 versus mouse RAW264.7 (THP-1 cells): significantly more potent
